Test results taken from patent publication US7766979B2, “Phase transformation in molecular solids” (Avantium International B.V., priority 2004, dated 2010).
Read-outs that look alike come from different tables or passages of the source. Each block holds one molecule with its values, some of them ahead of it.

Experiments:
[1] = tribochemical treatment (high-energy grinding) with phase detection by X-ray powder diffractometry; format: physicochemical; conditions: for phase transformation achieved by the process (summary statement): Fritsch Pulverisette 7, hardened steel, as a solid
Method: The detection of the particular modification/form was conducted with X-ray powder diffractometry: X-ray diffractometer: SToe STADI P transmission diffractometer, CuKα1: 1.54060 Å, linear position-sensitive detector, measurement range 5-40°2Theta, step width 0.01°2Theta, measurement time 960 sec/step.
High-energy mill: Fritsch Pulverisette 7;
Grinding cup: hardened steel, volume 10 ml; […]
Temperature control: no temperature control […]
Amount of substance: 1.0 g

[2] = cited from earlier work; for phase transformation under mechanical stress (grinding, pressure): conventional grinding or pressure, literature
[3] = cited from earlier work; for temperature of conversion to the other polymorph: on heating
[4] = compared with form 1; cited from earlier work

- phase found after tribochemical treatment ([1]; Experiment 3.1: 1.0 g, 800 rpm, 1 hour): partial transformation to form C
- phase transformation achieved by the process (summary statement) ([1]; listed as form A): partly to form C
SMILES: CCCNC(=O)NS(=O)(=O)c1ccc(Cl)cc1 [Chlorpropamide form A, Chlorpropamide]
- phase transformation under mechanical stress (grinding, pressure) ([2]; listed as form A): detectable phase transformations under none of the mechanical stresses listed

- phase found after tribochemical treatment ([1]; Experiment 3.3: 1.0 g, 800 rpm, 60 minutes): transformed fully to form A
- phase transformation achieved by the process (summary statement) ([1]; listed as form C): fully to form A
SMILES: CCCNC(=O)NS(=O)(=O)c1ccc(Cl)cc1 [Chlorpropamide form C, Chlorpropamide]
- phase found after tribochemical treatment ([1]; Experiment 3.2: 1.0 g, 800 rpm, 15 minutes): clearly perceptible incipient transformation to form A
- thermodynamic stability of the phase ([3]; at room temperature (acetazolamide)): metastable
- phase transformation under mechanical stress (grinding, pressure) ([2]; listed as form C): partial phase transformation to form A

- phase found after tribochemical treatment ([1]; Experiment 2.1: 1.0 g, 800 rpm, 1 hour): converted virtually fully to polymorph 1
- phase found after tribochemical treatment ([1]; Experiment 2.2: 1.0 g, 800 rpm, 5 minutes): attributable to the polymorph 2 used
- phase found after tribochemical treatment ([1]; Experiment 2.3: 1.0 g, 800 rpm, 30 minutes): polymorph 1 is isolated
- phase found after tribochemical treatment ([1]; Experiment 2.4: 1.0 g, 800 rpm, 45 minutes): polymorph 1 is likewise isolated
- phase found after tribochemical treatment ([1]; Experiment 2.5: 1.0 g, 400 rpm, 30 minutes): attributable to the polymorph 2 used
- phase found after tribochemical treatment ([1]; Experiment 2.6: 1.0 g, 400 rpm, 60 minutes): no phase transformation is observed
SMILES: CC(=O)Nc1nnc(S(N)(=O)=O)s1 [polymorph 2 of acetazolamide, 5-Acetamido-1,3,4-thiadiazole-2-sulfonamide]
- phase transformation achieved by the process (summary statement) [1]: virtually full transformation of polymorph 2 to polymorph 1
- temperature of conversion to the other polymorph [3]: 120-148 °C
- phase transformation under mechanical stress (grinding, pressure) ([2]; listed as polymorph 2): Nor has the transformation of polymorph 2 to polymorph 1 under mechanical stress been observed

Further lines, the molecule ahead of its results:

SMILES: CC(=O)Nc1nnc(S(N)(=O)=O)s1 [polymorph 1 of acetazolamide, 5-Acetamido-1,3,4-thiadiazole-2-sulfonamide]
- phase transformation under mechanical stress (grinding, pressure) ([2]; listed as polymorph 1): not converted back to polymorph 2
- storage period without conversion back to polymorph 2 ([2]; storage): over 5 years

SMILES: Cc1ccnc(NS(=O)(=O)c2ccc(N)cc2)n1 [sulfamerazine form 1, 2-Sulfanilamido-4-methylpyrimidine]
- phase found after tribochemical treatment ([1]; Example 1.1: 1.0 g, normal atmosphere, 800 rpm, 1 hour, no temperature control): Virtually full conversion of form 1 to the desired form 2
- phase found after tribochemical treatment ([1]; Example 1.2: 1.0 g, normal atmosphere, 800 rpm, 5 minutes): still attributable to form 1
- phase found after tribochemical treatment ([1]; Example 1.3: 1.0 g, normal atmosphere, 800 rpm, 15 minutes): still attributable to form 1
- phase found after tribochemical treatment ([1]; Example 1.4: 1.0 g, normal atmosphere, 800 rpm, 30 min): all of which are attributable to form 2
- phase found after tribochemical treatment ([1]; Example 1.5: 10.0 g, 7 balls, 40 ml grinding cup, 800 rpm, 15 minutes): those of form 1
- phase found after tribochemical treatment ([1]; Example 1.6: 10.0 g, 7 balls, 40 ml grinding cup, 800 rpm, 30 min): all of which are attributable to form 2
- phase found after tribochemical treatment ([1]; Example 1.7: 15.0 g, 2 balls, 40 ml grinding cup, 800 rpm, 120 and 180 min): formation of form 2
- phase transformation achieved by the process (summary statement) [1]: fully to form 2
- phase transformation under mechanical stress (grinding, pressure) [2]: neither polymorphic form undergoes a transformation

SMILES: Cc1ccnc(NS(=O)(=O)c2ccc(N)cc2)n1 [sulfamerazine form 2, 2-Sulfanilamido-4-methylpyrimidine]
- temperature of conversion to the other polymorph [3]: about 170 °C
- hygroscopicity [4]: less hygroscopic
- release of the active ingredient [4]: releases the sulfamerazine better
